In patent publication US10435406B2, “6,7-cyclicmorphinan derivatives and use thereof” (Purdue Pharma L.P., priority 2014, dated 2019):

Columns and labels:
κ opioid receptor [1] = molecular target: T1, κ opioid receptor (Homo sapiens (Human), UniProt P41145); assay: κ-opioid receptor radioligand dose-displacement binding assay (HEK); settings: HEK cells; [3H]-U69,593
Method: Membranes from recombinantHEK-293 cells, CHO or U-2 OS cells expressing the recombinant human κ opioid receptor (κ) were prepared by lysing cells in ice cold hypotonic buffer (2.5 mM MgCl2, 50 mM HEPES, pH 7.4) (10 mL/10 cm dish) followed by homogenization with a tissue grinder/Teflon pestle. Membranes were collected by centrifugation at 30,000×g for 15 min at 4° C. and pellets were resuspended in hypotonic buffer to a final concentration of 1-3 mg/mL. Protein concentrations were determined using the BioRad protein assay reagent with bovine serum albumen as standard. Aliquots of κ receptor membranes were stored at −80° C.
Radioligand dose displacement assays used 0.4 nM [^3H]-U69,593 (GE Healthcare, Piscataway, N.J.; 40 Ci/mmole) with 15 μg membrane protein (recombinant κ opioid receptor expressed in HEK 293 cells; in-house prep) in a final volume of 200 μl binding buffer (5% DMSO, 50 mM Trizma base, pH 7.4). Non-specific binding was determined in the presence of 10 μM unlabeled naloxone or U69,593. All reactions were performed in 96-well polypropylene plates for 1 hour at a temperature of about 25° C. Binding reactions were terminated by rapid filtration onto 96-well Unifilter GF/C filter plates (Perkin Elmer, Shelton, Conn.) presoaked in 0.5% polyethylenimine (Sigma). Harvesting was performed using a 96-well tissue harvester (Perkin Elmer, Shelton, Conn.) followed by five filtration washes with 200 μl ice-cold binding buffer. Filter plates were subsequently dried at 50° C. for 1-2 hours. Fifty μl/well scintillation cocktail (Perkin Elmer, Shelton, Conn.) was added and plates were counted in a Packard Top-Count for 1 min/well.
(§1) In TABLE 2, binding affinity of certain Compounds of the Invention to the μ- and κ-opioid receptors was determined as described above using HEK cells.

κ opioid receptor [2] = molecular target: T1, κ opioid receptor; assay: κ-opioid receptor [35S]GTPγS functional assay (HEK); assay type: biochemical; settings: for Emax: HEK, GTPγS, relative to U69,593
Method: (§2) Functional [^35S]GTPγS binding assays were conducted as follows. K opioid receptor membrane solution was prepared by sequentially adding final concentrations of 0.026 μg/μl membrane protein (in-house), 10 μg/mL saponin, 3 μM GDP and 0.20 nM [^35S]GTPγS to binding buffer (100 mM NaCl, 10 mM MgCl2, 20 mM HEPES, pH 7.4) on ice. The prepared membrane solution (190 μl/well) was transferred to 96-shallow well polypropylene plates containing 10 μl of 20× concentrated stock solutions of agonist prepared in DMSO. Plates were incubated for 30 min at a temperature of about 25° C. with shaking. Reactions were terminated by rapid filtration onto 96-well Unifilter GF/B filter plates (Perkin Elmer, Shelton, Conn.) using a 96-well tissue harvester (Packard) and followed by three filtration washes with 200 μl ice-cold binding buffer (10 mM NaH2PO4, 10 mM Na2HPO4, pH 7.4). Filter plates were subsequently dried at 50° C. for 2-3 hours. Fifty μl/well scintillation cocktail (Perkin Elmer, Shelton, Conn.) was added and plates were counted in a Packard Top-Count for 1 min/well.
(§3) GTP EC50 is the concentration of a compound providing 50% of the maximal response for the compound at a κ receptor.
(§4) κ GTP Emax (%) is the maximal effect elicited by a compound relative to the effect elicited by U69,593.
(§5) In TABLE 3, activity response of certain Compounds of the Invention to the μ- and κ-opioid receptors was determined as described above for functional assays using HEK cells.

μ-opioid receptor [3] = molecular target: T2, μ-opioid receptor (Homo sapiens (Human), UniProt P35372); assay: μ-opioid receptor [35S]GTPγS functional assay (U-2 OS); assay type: biochemical; settings: for Emax: U2OS, GTPγS, relative to DAMGO
Method: (§6) [^35S]GTPγS functional assays were conducted using freshly thawed μ-receptor membranes prepared in-house from a cell line expressing recombinant μ opioid receptor in a HEK-293, CHO or U-2 OS cell background, or purchased from a commercial source (Perkin Elmer, Shelton, Conn.; or DiscovRx, Fremont, Calif.). Assay reactions were prepared by sequentially adding the following reagents to binding buffer (100 mM NaCl, 10 mM MgCl2, 20 mM HEPES, pH 7.4) on ice (final concentrations indicated): membrane protein (0.026 mg/mL), saponin ([…]), GDP ([…]) and [^35S]GTPγS (0.20 nM; Perkin Elmer, Shelton, Conn.). The prepared membrane solution (190 μl/well) was transferred to 96-shallow well polypropylene plates containing 10 μl of 20× concentrated stock solutions of the agonist [D-Ala^2, N-methyl-Phe^4 Gly-ol^5]-enkephalin (DAMGO) prepared in dimethyl sulfoxide (DMSO). Plates were incubated for […] at about 25° C. with shaking. Reactions were terminated by rapid filtration onto 96-well Unifilter GF/B filter plates (Perkin Elmer, Shelton, Conn.) using a 96-well tissue harvester (Perkin Elmer, Shelton, Conn.) followed by three filtration washes with 200 μl of ice-cold wash buffer (10 mM NaH2PO4, 10 mM Na2HPO4, pH 7.4). Filter plates were subsequently dried at 50° C. for 2-3 hours. BetaScint scintillation cocktail (Perkin Elmer, Shelton, Conn.) was added (50 μl/well) and plates were counted using a Packard Top-Count for 1 min/well. Data were analyzed using the sigmoidal dose-response curve fitting functions in GraphPad PRISM v. 3.0, or an in-house function for non-linear, sigmoidal dose-response curve-fitting.
(§7) μ GTP EC50 is the concentration of a compound providing 50% of the maximal response for the compound at a μ-opioid receptor.
(§8) μ GTP Emax (%) is the maximal effect elicited by a compound relative to the effect elicited by DAMGO, a standard agonist. Generally, the μ GTP Emax (%) value measures the efficacy of a compound to treat or prevent pain or other Conditions.
(§9) In TABLE 4, activity response of certain Compounds of the Invention to the μ- and κ-opioid receptors was determined as described above for functional assays using U-2 OS cells.

μ-opioid receptor [4] = molecular target: T2, μ-opioid receptor; assay: μ-opioid receptor radioligand dose-displacement binding assay (HEK); settings: HEK cells; [3H]-diprenorphine
Method: Radioligand dose-displacement binding assays for μ-opioid receptors used 0.3 nM [^3H]-diprenorphine (Perkin Elmer, Shelton, Conn.), with […] membrane protein/well in a final volume of 500 μl binding buffer (10 mM MgCl2, 1 mM EDTA, 5% DMSO, 50 mM HEPES, pH 7.4). Reactions were carried out in the absence or presence of increasing concentrations of unlabeled naloxone. All reactions were conducted in 96-deep well polypropylene plates for 2 hours at room temperature. Binding reactions were terminated by rapid filtration onto 96-well Unifilter GF/C filter plates (Perkin Elmer, Shelton, Conn.), presoaked in 0.5% polyethylenimine using a 96-well tissue harvester (Perkin Elmer, Shelton, Conn.) followed by performing three filtration washes with 500 μl of ice-cold binding buffer. Filter plates were subsequently dried at 50° C. for 2-3 hours. BetaScint scintillation cocktail (Perkin Elmer, Shelton, Conn.) was added (50 μl/well), and plates were counted using a Packard Top-Count for 1 min/well. The data were analyzed using the one-site competition curve fitting functions in GraphPad PRISM™ v. 3.0 or higher (San Diego, Calif.), or an in-house function for one-site competition curve-fitting.
as §1

κ opioid receptor [5] = molecular target: T1, κ opioid receptor; assay: κ-opioid receptor [35S]GTPγS functional assay (U-2 OS); assay type: biochemical; settings: for Emax: U2OS, GTPγS, relative to U69,593
Method: as §2, §3, §4, §9

μ-opioid receptor [6] = molecular target: T2, μ-opioid receptor; assay: μ-opioid receptor [35S]GTPγS functional assay (HEK); assay type: biochemical; settings: for Emax: HEK, GTPγS, relative to DAMGO
Method: as §6, §7, §8, §5

SMILES | Ki (κ opioid receptor [1]) [nM] | EC50 (κ opioid receptor [2]) [nM] | Emax (κ opioid receptor [2]) [%] | EC50 (μ-opioid receptor [3]) [nM] | Emax (μ-opioid receptor [3]) [%] | Ki (μ-opioid receptor [4]) [nM] | EC50 (κ opioid receptor [5]) [nM] | Emax (κ opioid receptor [5]) [%] | EC50 (μ-opioid receptor [6]) [nM] | Emax (μ-opioid receptor [6]) [%]
COc1ccc2c(c1)[C@]13CCN(CC4CC4)[C@H](C2)[C@]1(O)C[C@H]1CC(=O)N[C@H]1C3 [Compound 1, (6R,6aS,7aS,10aS,11aR)-14-(cyclopropylmethyl)-6a-hydroxy-2-methoxy-5,6,6a,7,7a,8,10a,11-octahydro-6,11a-(epiminoethano)naphtho[2,1-f]indol-9(10H)-one] | 12.4 ± 3.09 | 1770 ± 713 | 77 ± 8.19 | 223 ± 42 | 81.7 ± 3.33 | 533 ± 170 | 66.9 ± 3.47 | 99 ± 1.53 | 821 ± 190 | 25.8 ± 0.48
O=C1C[C@@H]2C[C@@]3(O)[C@H]4Cc5ccc(O)cc5[C@@]3(CCN4CCc3ccccc3)C[C@@H]2N1 [Compound 5, (6R,6aS,7aS,10aS,11aR)-2,6a-dihydroxy-14-phenethyl-5,6,6a,7,7a,8,10a,11-octahydro-6,11a-(epiminoethano)naphtho[2,1-f]indol-9(10H)-one] | 4.03 ± 0.7 | > 20000 | -0.25 ± 0.75 | – | – | – | – | – | 1.94 ± 0.073 | 99.7 ± 2.03
O=C1C=C2C[C@@]3(O)[C@H]4Cc5ccc(O)cc5[C@@]3(CCN4CC3CC3)CC2N1 (stereo partly drawn) [Compound 9, (6R,6aS,11aR)-14-(cyclopropylmethyl)-2,6a-dihydroxy-5,6,6a,7,10a,11-hexahydro-6,11a-(epiminoethano)naphtho[2,1-f]indol-9(10H)-one] | 2.16 ± 0.45 | 7.24 ± 1.69 | 27.2 ± 3.45 | 6.35 ± 1.74 | 19.5 ± 0.29 | 2.34 ± 0.27 | 4.96 ± 0.59 | 87.5 ± 6.44 | > 20000 | 1
O=C1C[C@@H]2C[C@@]3(O)[C@H]4Cc5ccc(O)cc5[C@@]3(CCN4CC3CC3)C[C@@H]2N1 [Compound 10, (6R,6aS,7aS,10aS,11aR)-14-(cyclopropylmethyl)-2,6a-dihydroxy-5,6,6a,7,7a,8,10a,11-octahydro-6,11a-(epiminoethano)naphtho[2,1-f]indol-9(10H)-one] | 0.16 ± 0.017 | 1 ± 0.18 | 76.2 ± 5.39 | 1.59 ± 0.19 | 46 ± 1 | 0.8 ± 0.1 | 0.42 ± 0.027 | 112 ± 2.65 | > 20000 | 0
CCN1C(=O)C[C@@H]2C[C@@]3(O)[C@H]4Cc5ccc(O)cc5[C@@]3(CCN4CC3CC3)C[C@@H]21 [Compound 16, (6R,6aS,7aS,10aS,11aR)-14-(cyclopropylmethyl)-10-ethyl-2,6a-dihydroxy-5,6,6a,7,7a,8,10a,11-octahydro-6,11a-(epiminoethano)-naphtho[2,1-f]indol-9(10H)-one] | 0.31 ± 0.085 | 0.66 ± 0.059 | 49.7 ± 2.19 | – | – | – | – | – | 4.18 ± 0.61 | 20 ± 0.91
